# Bridge positions count the residues as written; N and C are the ends. Square brackets hold non-standard residues; d marks the D form. Peptide text beside a SMILES is read from it. * marks the point of attachment. ξ: configuration not given here. Phe(4-COOH) = N[C@@H](Cc1ccc(C(=O)O)cc1)C(=O)O; Phe(4-CH2NH2) = NCc1ccc(C[C@H](N)C(=O)O)cc1; Bip = N[C@@H](Cc1ccc(-c2ccccc2)cc1)C(=O)O; Phe(3-Me) = Cc1cccc(C[C@H](N)C(=O)O)c1; Phe(2-F) = N[C@@H](Cc1ccccc1F)C(=O)O; Val(3-OH) = CC(C)(O)[C@H](N)C(=O)O; 4Pal = N[C@@H](Cc1ccncc1)C(=O)O; Cha = N[C@@H](CC1CCCCC1)C(=O)O; Cit = NC(=O)NCCC[C@H](N)C(=O)O; Ile(3ξ) = CCC(C)[C@H](N)C(=O)O; Thr(3ξ) = CC(O)[C@H](N)C(=O)O; ξ4Pal = NC(Cc1ccncc1)C(=O)O; ξCha = NC(CC1CCCCC1)C(=O)O; Carboxymethyl = O=C(O)C*; NMeA = CN[C@@H](C)C(=O)O; Orn = NCCC[C@H](N)C(=O)O; Dab = NCC[C@H](N)C(=O)O; Dap = NC[C@H](N)C(=O)O; Ac3c = NC1(C(=O)O)CC1
# Biological target: T1, PE-labeled human PD-L1-Ig binding to Jurkat cell line over-expressing human PD-1 (Jurkat-PD-1) (Homo sapiens, UniProt Q15116)
# T1 construct: expressed in transfected cells; host or cells: Jurkat
# Experiment: Jurkat-PD-1 Cell Binding High-Content Screening Assay (CBA): Method 1
# Conditions: Jurkat-hPD-1 cells, PE-labeled PD-L1-Ig 20 nM final; read-out: Jurkat HPDL1 PD1 IC50 (uM) (Method 1)
# T1 sequence (Q15116 25-288): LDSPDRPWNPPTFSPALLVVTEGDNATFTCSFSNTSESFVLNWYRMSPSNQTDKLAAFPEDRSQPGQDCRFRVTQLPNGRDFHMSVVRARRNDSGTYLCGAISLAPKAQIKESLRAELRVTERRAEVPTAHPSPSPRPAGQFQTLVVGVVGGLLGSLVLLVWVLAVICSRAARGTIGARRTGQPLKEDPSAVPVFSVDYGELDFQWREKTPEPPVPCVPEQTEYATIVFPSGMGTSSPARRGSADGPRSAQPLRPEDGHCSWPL
row,SMILES,IC50 [µM]
1,CC(C)C[C@@H]1NC(=O)[C@H](CCCN)NC(=O)[C@@H](CC(C)C)NC(=O)[C@H](C)N(C)C(=O)[C@H](CCCNC(=N)N)NC(=O)[C@H](Cc2ccc(-c3ccccc3)cc2)NC(=O)[C@H](C(C)C)NC(=O)[C@H](Cc2c[nH]c3ccccc23)NC(=O)[C@H](CC(=O)O)NC(=O)[C@H](Cc2ccc(O)cc2)NC(=O)[C@H](CC(N)=O)NC(=O)CSC[C@@H](C(=O)N[C@@H](CO)C(N)=O)NC(=O)[C@H]([C@@H](C)O)NC(=O)[C@H](C(C)C)NC1=O [Compound 1177] ({CH2CO}-NYDWV[Bip]R[NMeA][dL][Orn]LVTCS-NH2; thioether N-14),0.12
2,Cc1cccc(C[C@@H]2NC(=O)[C@H](CC(=O)O)NC(=O)[C@H](Cc3ccc(OCC(=O)O)cc3)NC(=O)[C@H](Cc3ccncc3)NC(=O)CSC[C@@H](C(N)=O)NC(=O)[C@H](CC(=O)O)NC(=O)[C@H](C(C)C)NC(=O)[C@H](CC3CCCCC3)NC(=O)[C@H](CCN)NC(=O)[C@@H](CC(C)C)NC(=O)[C@H](C)N(C)C(=O)[C@H](Cc3ccc(OCC(=O)O)cc3)NC(=O)[C@H](Cc3ccc(-c4ccccc4)cc3)NC(=O)[C@H](Cc3ccc(OCC(=O)O)cc3)NC2=O)c1 [Compound 1658] ({CH2CO}-[4Pal]Y(Carboxymethyl)D[Phe(3-Me)]Y(Carboxymethyl)[Bip]Y(Carboxymethyl)[NMeA][dL][Dab][Cha]VDC-NH2; thioether N-14),0.03
3,CC(C)C[C@@H]1NC(=O)[C@H](Cc2c[nH]c3ccccc23)NC(=O)[C@H](CC(=O)O)NC(=O)[C@H](Cc2ccc(O)cc2)NC(=O)[C@H](Cc2ccccc2)NC(=O)CSC[C@@H](C(=O)N[C@@H](C)C(N)=O)NC(=O)[C@H](CO)NC(=O)[C@H](CCN)NC(=O)[C@H](CC(C)C)NC(=O)[C@H](CC(N)=O)NC(=O)[C@@H](C)NC(=O)[C@H](C)N(C)C(=O)[C@H](C(C)C)NC(=O)[C@H](Cc2ccc(-c3ccccc3)cc2)NC1=O [Compound 1531] ({CH2CO}-FYDWL[Bip]V[NMeA][dA]NL[Dab]SCA-NH2; thioether N-14),0.11
4,CC(C)C[C@@H]1NC(=O)[C@H](Cc2c[nH]c3ccccc23)NC(=O)[C@H](CC(=O)O)NC(=O)[C@H](Cc2ccc(C(=O)O)cc2)NC(=O)[C@H](Cc2ccccc2)NC(=O)CSC[C@@H](C(=O)NCC(N)=O)NC(=O)[C@H](CO)NC(=O)[C@H](C(C)C)NC(=O)[C@H](CC(C)C)NC(=O)[C@H](CC(N)=O)NC(=O)[C@@H](CC(C)C)NC(=O)[C@H](C)N(C)C(=O)[C@H](C(C)C)NC(=O)[C@H](Cc2ccc(-c3ccccc3)cc2)NC1=O [Compound 1528] ({CH2CO}-F[Phe(4-COOH)]DWL[Bip]V[NMeA][dL]NLVSCG-NH2; thioether N-14),0.01
5,Cc1cccc(C[C@@H]2NC(=O)[C@H](CC(=O)O)NC(=O)[C@H](Cc3ccc(OCC(=O)O)cc3)NC(=O)[C@H](Cc3ccncc3)NC(=O)CSC[C@@H](C(=O)N[C@@H](CCN)C(N)=O)NC(=O)[C@H](CO)NC(=O)[C@H](C(C)C)NC(=O)[C@H](CC3CCCCC3)NC(=O)[C@H](CCN)NC(=O)[C@@H](CC(C)C)NC(=O)[C@H](C)N(C)C(=O)[C@H](Cc3ccc(OCC(=O)O)cc3)NC(=O)[C@H](Cc3ccc(-c4ccccc4)cc3)NC(=O)[C@H](Cc3ccc(OCC(=O)O)cc3)NC2=O)c1 [Compound 1860] ({CH2CO}-[4Pal]Y(Carboxymethyl)D[Phe(3-Me)]Y(Carboxymethyl)[Bip]Y(Carboxymethyl)[NMeA][dL][Dab][Cha]VSC[Dab]-NH2; thioether N-14),0.01
6,CC(C)C[C@@H]1NC(=O)[C@H](CCN)NC(=O)[C@@H](CC(C)C)NC(=O)[C@H](C)N(C)C(=O)[C@H](CCCNC(N)=O)NC(=O)[C@H](Cc2ccc(-c3ccccc3)cc2)NC(=O)[C@H](C(C)C)NC(=O)[C@H](Cc2c[nH]c3ccccc23)NC(=O)[C@H](CC(=O)O)NC(=O)[C@H](Cc2ccc(C(=O)O)cc2)NC(=O)[C@H](CN)NC(=O)CSC[C@@H](C(=O)N[C@@H](C)C(N)=O)NC(=O)[C@H]([C@@H](C)O)NC(=O)[C@H](C(C)C)NC1=O [Compound 1404] ({CH2CO}-[Dap][Phe(4-COOH)]DWV[Bip][Cit][NMeA][dL][Dab]LVTCA-NH2; thioether N-14),0.12
7,CC(C)C[C@@H]1NC(=O)[C@H](CCN)NC(=O)[C@@H](CC(C)C)NC(=O)[C@H](C)N(C)C(=O)[C@H](CCCNC(N)=O)NC(=O)[C@H](Cc2ccc(-c3ccccc3)cc2)NC(=O)[C@H](C(C)C)NC(=O)[C@H](Cc2c[nH]c3ccccc23)NC(=O)[C@H](CC(=O)O)NC(=O)[C@H](Cc2ccc(O)cc2)NC(=O)[C@H](Cc2cnc[nH]2)NC(=O)CSC[C@@H](C(=O)N[C@@H](C)C(N)=O)NC(=O)[C@H]([C@@H](C)O)NC(=O)[C@H](C(C)C)NC1=O [Compound 1356] ({CH2CO}-HYDWV[Bip][Cit][NMeA][dL][Dab]LVTCA-NH2; thioether N-14),0.02
8,Cc1cccc(C[C@@H]2NC(=O)[C@H](CC(=O)O)NC(=O)[C@H](Cc3ccc(OCC(=O)O)cc3)NC(=O)[C@H](CN)NC(=O)CSC[C@@H](C(N)=O)NC(=O)[C@H](CCCN)NC(=O)[C@H](C(C)C)NC(=O)[C@H](CC3CCCCC3)NC(=O)[C@H](CCN)NC(=O)[C@@H](CC(C)C)NC(=O)[C@H](C)N(C)C(=O)[C@H](Cc3ccc(OCC(=O)O)cc3)NC(=O)[C@H](Cc3ccc(-c4ccccc4)cc3)NC(=O)[C@H](Cc3ccc(OCC(=O)O)cc3)NC2=O)c1 [Compound 1646] ({CH2CO}-[Dap]Y(Carboxymethyl)D[Phe(3-Me)]Y(Carboxymethyl)[Bip]Y(Carboxymethyl)[NMeA][dL][Dab][Cha]V[Orn]C-NH2; thioether N-14),0.03
9,CC(C)C[C@@H]1NC(=O)[C@H](CCN)NC(=O)[C@@H](CC(C)C)NC(=O)[C@H](C)N(C)C(=O)[C@H](CCCNC(=N)N)NC(=O)[C@H](Cc2ccc(-c3ccccc3)cc2)NC(=O)[C@H](C(C)C)NC(=O)[C@H](Cc2c[nH]c3ccccc23)NC(=O)[C@H](CC(=O)O)NC(=O)[C@H](Cc2ccccc2F)NC(=O)[C@H](CN)NC(=O)CSC[C@@H](C(=O)N[C@@H](C)C(N)=O)NC(=O)[C@H]([C@@H](C)O)NC(=O)[C@H](C(C)C)NC1=O [Compound 1454] ({CH2CO}-[Dap][Phe(2-F)]DWV[Bip]R[NMeA][dL][Dab]LVTCA-NH2; thioether N-14),0.02

# Second part, the molecule after the results:
row,IC50 [µM],SMILES
1,0.04,Cc1cccc(C[C@@H]2NC(=O)[C@H](CC(=O)O)NC(=O)[C@H](Cc3ccc(C(=O)O)cc3)NC(=O)[C@H](Cc3ccncc3)NC(=O)CSC[C@@H](C(=O)N[C@@H](CCN)C(N)=O)NC(=O)[C@H](CO)NC(=O)[C@H](C(C)(C)O)NC(=O)[C@H](CC3CCCCC3)NC(=O)[C@H](CCN)NC(=O)[C@@H](CC(C)C)NC(=O)[C@H](C)N(C)C(=O)[C@H](Cc3ccc(C(=O)O)cc3)NC(=O)[C@H](Cc3ccc(-c4ccccc4)cc3)NC(=O)[C@H](Cc3ccc(OCC(=O)O)cc3)NC2=O)c1 [Compound 2184] ({CH2CO}-[4Pal][Phe(4-COOH)]D[Phe(3-Me)]Y(Carboxymethyl)[Bip][Phe(4-COOH)][NMeA][dL][Dab][Cha][Val(3-OH)]SC[Dab]-NH2; thioether N-14)
2,0.03,CC(C)C[C@H]1NC(=O)[C@H](C)N(C)C(=O)[C@H](C(C)C)NC(=O)[C@H](Cc2ccc(-c3ccccc3)cc2)NC(=O)[C@H](C(C)C)NC(=O)[C@H](Cc2c[nH]c3ccccc23)NC(=O)[C@H](CC(=O)O)NC(=O)[C@H](Cc2ccncc2)NC(=O)[C@H](Cc2ccc(CN)cc2)NC(=O)CSC[C@@H](C(N)=O)NC(=O)[C@H](CO)NC(=O)[C@H](C(C)C)NC(=O)[C@H](CC2CCCCC2)NC(=O)[C@H](CC(N)=O)NC1=O [Compound 2242] ({CH2CO}-[Phe(4-CH2NH2)][4Pal]DWV[Bip]V[NMeA][dL]N[Cha]VSC-NH2; thioether N-14)
3,0.12,CCC(C)[C@@H]1NC(=O)[C@H](Cc2ccc(-c3ccccc3)cc2)NC(=O)[C@H](C(C)C)NC(=O)[C@H](Cc2c[nH]c3ccccc23)NC(=O)[C@H](CC(N)=O)NC(=O)[C@H](Cc2ccc(OCC(=O)O)cc2)NC(=O)[C@H](Cc2ccncc2)NC(=O)CSC[C@@H](C(=O)N[C@@H](C)C(=O)N[C@@H](CCCCN)C(N)=O)NC(=O)[C@H](C(C)O)NC(=O)[C@H](C(C)C)NC(=O)C(CC2CCCCC2)NC(=O)[C@H](CC(N)=O)NC(=O)[C@@H](CC(C)C)NC(=O)[C@H](C)N(C)C1=O (stereo partly drawn) [Compound 2018] ({CH2CO}-[4Pal]Y(Carboxymethyl)NWV[Bip][Ile(3ξ)][NMeA][dL]N[ξCha]V[Thr(3ξ)]CAK-NH2; thioether N-14)
4,0.01,Cc1cccc(C[C@@H]2NC(=O)[C@H](CC(=O)O)NC(=O)[C@H](Cc3ccc(OCC(=O)O)cc3)NC(=O)[C@H](Cc3ccncc3)NC(=O)CSC[C@@H](C(=O)N[C@@H](CCN)C(N)=O)NC(=O)[C@H](CCC(=O)O)NC(=O)[C@H](C(C)C)NC(=O)[C@H](CC3CCCCC3)NC(=O)[C@H](CCN)NC(=O)[C@@H](CC(C)C)NC(=O)[C@H](C)N(C)C(=O)[C@H](Cc3ccc(OCC(=O)O)cc3)NC(=O)[C@H](Cc3ccc(-c4ccccc4)cc3)NC(=O)[C@H](Cc3ccc(C(=O)O)cc3)NC2=O)c1 [Compound 2193] ({CH2CO}-[4Pal]Y(Carboxymethyl)D[Phe(3-Me)][Phe(4-COOH)][Bip]Y(Carboxymethyl)[NMeA][dL][Dab][Cha]VEC[Dab]-NH2; thioether N-14)
5,0.01,Cc1cccc(C[C@@H]2NC(=O)[C@H](CC(=O)O)NC(=O)[C@H](Cc3ccc(OCC(=O)O)cc3)NC(=O)C(Cc3ccncc3)NC(=O)CSC[C@@H](C(=O)NC3(C(N)=O)CC3)NC(=O)[C@H](CO)NC(=O)[C@H](C(C)C)NC(=O)[C@H](CC3CCCCC3)NC(=O)[C@H](CCN)NC(=O)[C@@H](CC(C)C)NC(=O)[C@H](C)N(C)C(=O)[C@H](Cc3ccc(OCC(=O)O)cc3)NC(=O)[C@H](Cc3ccc(-c4ccccc4)cc3)NC(=O)[C@H](Cc3ccc(OCC(=O)O)cc3)NC2=O)c1 (stereo partly drawn) [Compound 1863] ({CH2CO}-[ξ4Pal]Y(Carboxymethyl)D[Phe(3-Me)]Y(Carboxymethyl)[Bip]Y(Carboxymethyl)[NMeA][dL][Dab][Cha]VSC[Ac3c]-NH2; thioether N-14)

# — patent US20240409585A1, “MACROCYCLIC IMMUNOMODULATORS” (priority 2021, published 2024)
